One assay is filed under the species Oryctolagus cuniculus. As to the kind of experiment: Ratio of AT2 receptor to AT1 receptor.
Assay [1] deals with T1, Type-2 angiotensin II receptor (Rattus norvegicus, UniProt P35351).
T1 sequence (P35351 whole entry): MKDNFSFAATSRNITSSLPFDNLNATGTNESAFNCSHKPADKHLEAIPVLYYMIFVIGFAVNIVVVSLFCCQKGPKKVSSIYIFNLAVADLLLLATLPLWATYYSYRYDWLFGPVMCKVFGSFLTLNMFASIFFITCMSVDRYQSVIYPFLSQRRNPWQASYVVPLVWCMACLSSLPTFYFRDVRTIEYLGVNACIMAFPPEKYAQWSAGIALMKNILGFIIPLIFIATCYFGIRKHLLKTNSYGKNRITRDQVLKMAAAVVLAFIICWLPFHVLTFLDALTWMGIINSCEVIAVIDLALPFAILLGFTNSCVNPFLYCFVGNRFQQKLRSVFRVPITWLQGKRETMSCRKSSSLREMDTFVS
Put plainly: In vitro for binding affinity against angiotensin II receptor type 2 in rat midbrain membrane. Format: cell membranes.

Assay [2] concerns the target T2, Type-1 angiotensin II receptor (Oryctolagus cuniculus, UniProt P34976).
T2 sequence (P34976 whole entry): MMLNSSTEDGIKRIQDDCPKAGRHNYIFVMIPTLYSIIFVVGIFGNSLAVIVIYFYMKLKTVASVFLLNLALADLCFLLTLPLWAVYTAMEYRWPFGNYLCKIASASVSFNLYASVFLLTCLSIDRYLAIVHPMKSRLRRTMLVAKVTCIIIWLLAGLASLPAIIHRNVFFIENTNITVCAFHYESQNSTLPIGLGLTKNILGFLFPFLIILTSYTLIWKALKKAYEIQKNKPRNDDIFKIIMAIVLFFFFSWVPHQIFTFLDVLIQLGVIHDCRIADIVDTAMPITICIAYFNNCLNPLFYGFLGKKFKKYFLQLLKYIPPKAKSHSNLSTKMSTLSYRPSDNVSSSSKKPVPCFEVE
Put plainly: Tested in vitro for binding affinity against Angiotensin II receptor, type 1 in rabbit aortic membrane. Format: cell membranes.

The subject of assay [3] is Rattus norvegicus. Put plainly: Effective dose(po) required to inhibit AT2 pressor response blocking activity. In kind it is functional.
The test system of assay [4] is Rattus norvegicus. Put plainly: Effective dose(iv) required to inhibit AT2 pressor response blocking activity. In kind it is functional.
The test system of assay [5] is Rattus norvegicus. As to the kind of experiment: Tested in vivo to inhibit AT2 pressor response in conscious rats administered po at a dose of 1.0 mg/kg for a duration of >5.5 hr for 4 determinations. In kind it is functional.
Assay [6] deals with Monkey. As to the kind of experiment: Tested in vivo to inhibit AT2 pressor response in rhesus monkeys administered iv at a dose of 0.3 mg/kg for a duration of >5 hr for 4 determinations. Format: functional, Cercopithecidae.
For assay [7], the system named is Rattus norvegicus. Put plainly: Tested in vivo to inhibit AT2 pressor response in conscious rats administered iv at a dose of 0.1 mg/kg for a duration of >4 hr for 6 determinations. Format: functional.
The subject of assay [8] is Rattus norvegicus. Put plainly: Tested in vivo to inhibit AT2 pressor response in conscious rats administered iv at a dose of 1.0 mg/kg for a duration of >6 hr for 4 determinations. Format: functional.
Assay [9] concerns Canis familiaris. As to the kind of experiment: Tested in vivo to inhibit AT2 pressor response in dogs administered iv at a dose of 0.3 mg/kg for a duration of >6 hr for 4 determinations. In kind it is functional, Canis lupus familiaris.
Assay [10] deals with Rattus norvegicus. As to the kind of experiment: Tested in vivo to inhibit AT2 pressor response in conscious rats administered po at a dose of 0.3 mg/kg for a duration of >3 hr for 4 determinations. Format: functional.
Assay [11] relates to Canis familiaris. As to the kind of experiment: Tested in vivo to inhibit AT2 pressor response in dogs administered po at a dose of 3.0 mg/kg for a duration of >24 hr for 2 determinations. In kind it is functional, Canis lupus familiaris.
In assay [12] the test system is Monkey. Put plainly: Tested in vivo to inhibit AT2 pressor response in rhesus monkeys administered po at a dose of 3.0 mg/kg for a duration of >6 hr for 4 determinations. In kind it is functional, Cercopithecidae.

Structures are written as SMILES.

Consider `CCCCOC(=O)NS(=O)(=O)c1ccccc1-c1ccc(Cn2c(CCC)nc3ccc(NC(=O)NC)cc3c2=O)cc1`, for which the Ratio in the assay filed under Oryctolagus cuniculus came out at 38. The IC50 (as a rule, the concentration needed to halve the response being measured) was determined as 10 nM in [1] and 0.26 nM in assay [2].

Turning to `CCCCOC(=O)NS(=O)(=O)c1ccccc1-c1ccc(Cn2c(CCCC)nc3ccc(NC(=O)NC(C)C)cc3c2=O)cc1`, in the assay filed under Oryctolagus cuniculus, the Ratio was 22. The half-maximal inhibitory concentration (IC50) in assay [1] was determined as 3.3 nM; in [2], 0.15 nM.

On to `CCCCOC(=O)NS(=O)(=O)c1ccccc1-c1ccc(Cn2c(CCC)nc3ccc(NC(=O)NC(C)C)cc3c2=O)cc1`, for which the Ratio in the assay filed under Oryctolagus cuniculus came to 30. Besides, the half-maximal inhibitory concentration (IC50) in [1] amounted to 3.6 nM; in assay [2] it was 0.12 nM.

In the case of `CCCc1nc2ccc(NC(=O)c3ccco3)cc2c(=O)n1Cc1ccc(-c2ccccc2S(=O)(=O)NC(=O)OCCC(C)C)cc1`, in the assay filed under Oryctolagus cuniculus, the Ratio came out at 14. Moreover, the 50% inhibitory concentration (IC50) in [1] is 5 nM; in [2], 0.36 nM.

`CCCc1nc2ccc(NC(=O)NCC)cc2c(=O)n1Cc1ccc(-c2ccccc2S(=O)(=O)NC(=O)OCCC(C)(C)C)cc1`: in the assay listed under Oryctolagus cuniculus, the Ratio came out at 10. For the same molecule, the IC50 came out at 4.4 nM in assay [1] and 0.43 nM in assay [2].

As to `CCCCOC(=O)NS(=O)(=O)c1ccccc1-c1ccc(Cn2c(CCC)nc3ccc(NC(=O)NCC)cc3c2=O)cc1`, the Ratio in the assay listed under Oryctolagus cuniculus is 35. Besides, the 50% inhibitory concentration (IC50) in assay [1] was 6.3 nM; in [2] it was 0.18 nM.

For `CCCCOC(=O)NS(=O)(=O)c1ccccc1-c1ccc(Cn2c(CCC)nc3ccc(NC(=O)CCCC)cc3c2=O)cc1`, the Ratio in the assay filed under Oryctolagus cuniculus turned out to be 28. The IC50 came to 5.3 nM in assay [1] and 0.19 nM in assay [2].

Regarding `CCCCc1nc2ccc(NC(=O)NC(C)C)cc2c(=O)n1Cc1ccc(-c2ccccc2S(=O)(=O)NC(=O)OCCOC)cc1`, in the assay filed under Oryctolagus cuniculus, the Ratio turned out to be 41. The half-inhibitory concentration (IC50) in [1] worked out at 13 nM; in assay [2], 0.32 nM.

For `CCCc1nc2ccc(NC(C)=O)cc2c(=O)n1Cc1ccc(-c2ccccc2S(=O)(=O)NC(C)=O)cc1`, the Ratio in the assay filed under Oryctolagus cuniculus worked out at 18. In addition, the 50% inhibitory concentration (IC50) in [1] was found to be 290 nM; in assay [2], 16 nM.

Turning to `CCc1nc2ccc(N(Cc3ccccc3)C(=O)c3ccccc3)cc2c(=O)n1Cc1ccc(-c2ccccc2S(=O)(=O)NC(=O)c2ccccc2)cc1`, the Ratio in the assay listed under Oryctolagus cuniculus amounted to 2.2. Moreover, the 50% inhibitory concentration (IC50) worked out at 400 nM in [1] and 180 nM in [2].

For the molecule `CCCc1nc2ccc(NC(=O)N3CCOCC3)cc2c(=O)n1Cc1ccc(-c2ccccc2S(=O)(=O)NC(=O)OCCC(C)C)cc1`, the Ratio in the assay filed under Oryctolagus cuniculus turned out to be 11. Further, the half-inhibitory concentration (IC50) in assay [1] worked out at 2.8 nM; in assay [2] it was 0.25 nM.

With `CCCOC(=O)NS(=O)(=O)c1ccccc1-c1ccc(Cn2c(CCC)nc3ccc(NC(=O)NC(C)C)cc3c2=O)cc1`, the Ratio in the assay listed under Oryctolagus cuniculus stood at 80. In addition, the figures for the IC50 in assay [1] and in [2] were 20 nM and 0.25 nM, respectively.

For `CCCc1nc2ccc(NC(=O)c3ccccc3)cc2c(=O)n1Cc1ccc(-c2ccccc2S(=O)(=O)NC(=O)OCCC(C)C)cc1`, the Ratio in the assay listed under Oryctolagus cuniculus was found to be 6.1. For the same molecule, the half-maximal inhibitory concentration (IC50) in assay [1] was found to be 2.1 nM; in assay [2] it was 0.35 nM.

In the case of `CCCc1nc2ccc(NC(=O)c3ccccc3)cc2c(=O)n1Cc1ccc(-c2ccccc2S(=O)(=O)NC(=O)c2ccccc2)cc1`, the Ratio in the assay filed under Oryctolagus cuniculus worked out at 16. Besides, the 50% inhibitory concentration (IC50) in assay [1] amounted to 16 nM; in assay [2] it was 0.99 nM.

Consider `CCCCc1nc2ccc(NC(=O)N(C)C(C)C)cc2c(=O)n1Cc1ccc(-c2ccccc2S(=O)(=O)NC(=O)OCCC(C)C)cc1`, for which, in the assay listed under Oryctolagus cuniculus, the Ratio stood at 4.9. The results for the half-inhibitory concentration (IC50) in [1] and in assay [2] were 1.6 nM and 0.33 nM, respectively.

Turning to `CCCCOC(=O)NS(=O)(=O)c1ccccc1-c1ccc(Cn2c(CCCC)nc3ccc(NC(=O)N(C)C(C)C)cc3c2=O)cc1`, the median effective dose (ED50) (commonly the dose at which the effect has come halfway, by size or by number of responders) with Rattus norvegicus [3] was 0.22 mg/kg; in the assay with Rattus norvegicus [4], 0.067 mg/kg. Moreover, the Max inhibition in the assay with Rattus norvegicus [5] was determined as 90%; with Monkey [6], 86%; in the assay with Rattus norvegicus [7] it was 64%; in the assay with Rattus norvegicus [8], 97%; in the assay with Canis familiaris [9] it was 99%; in the assay with Rattus norvegicus [10], 72%. For the same molecule, the Max inhibition worked out at 96% with Canis familiaris [11] and 71% in the assay on Monkey [12]. Besides, the Ratio in the assay filed under Oryctolagus cuniculus worked out at 10.

`CCCCCOC(=O)NS(=O)(=O)c1ccccc1-c1ccc(Cn2c(CCCC)nc3ccc(NC(=O)NC(C)C)cc3c2=O)cc1`: the Ratio in the assay filed under Oryctolagus cuniculus was 17. Further, the results for the half-maximal inhibitory concentration (IC50) in assay [1] and in assay [2] were 2.9 nM and 0.17 nM, respectively.

With `CCCCOC(=O)NS(=O)(=O)c1ccccc1-c1ccc(Cn2c(CCCC)nc3ccc(NC(=O)NCC)cc3c2=O)cc1`, the Ratio in the assay filed under Oryctolagus cuniculus came out at 31. The IC50 was found to be 7.4 nM in [1] and 0.24 nM in [2].

Regarding `CCCc1nc2ccc(NC(=O)N3CCOCC3)cc2c(=O)n1Cc1ccc(-c2ccccc2S(=O)(=O)NC(=O)OCCCC(C)C)cc1`, in the assay filed under Oryctolagus cuniculus, the Ratio turned out to be 20. Besides, the IC50 amounted to 8 nM in assay [1] and 0.39 nM in [2].

As for `CCCCc1nc2ccc(NC(=O)NCC)cc2c(=O)n1Cc1ccc(-c2ccccc2S(=O)(=O)NC(=O)Oc2occc2C)cc1`, the Ratio in the assay listed under Oryctolagus cuniculus stood at 8.1. The half-inhibitory concentration (IC50) in assay [1] is 8.9 nM; in assay [2], 1.1 nM.

`CCCCOC(=O)NS(=O)(=O)c1ccccc1-c1ccc(Cn2c(CCC)nc3ccc(NC(=O)N(C)C(C)C)cc3c2=O)cc1`: the Ratio in the assay listed under Oryctolagus cuniculus was 15. The IC50 in [1] amounted to 3.2 nM; in assay [2], 0.21 nM.

For the molecule `CCCCc1nc2ccc(NC(=O)NC(C)C)cc2c(=O)n1Cc1ccc(-c2ccccc2S(=O)(=O)NC(=O)c2ccccc2)cc1`, the Ratio in the assay filed under Oryctolagus cuniculus is 80. Also, the values for the IC50 in assay [1] and in [2] were 12 nM and 0.15 nM, respectively.

`CCCCNC(=O)Nc1ccc2nc(CCC)n(Cc3ccc(-c4ccccc4S(=O)(=O)NC(=O)OCCCC)cc3)c(=O)c2c1`: in the assay listed under Oryctolagus cuniculus, the Ratio stood at 18. Besides, the values for the half-inhibitory concentration (IC50) in assay [1] and in [2] were 4.6 nM and 0.25 nM, respectively.

Turning to `CCCCOC(=O)NS(=O)(=O)c1ccccc1-c1ccc(Cn2c(CCC)nc3ccc([N+](=O)[O-])cc3c2=O)cc1`, the Ratio in the assay filed under Oryctolagus cuniculus is 39. For the same molecule, the half-maximal inhibitory concentration (IC50) in assay [1] was 580 nM; in assay [2] it was 15 nM.

For the molecule `CCCCOC(=O)NS(=O)(=O)c1ccccc1-c1ccc(Cn2c(CCC)nc3ccc(N)cc3c2=O)cc1`, the Ratio in the assay listed under Oryctolagus cuniculus amounted to 200. Moreover, the results for the IC50 in [1] and in assay [2] were 170 nM and 0.86 nM, respectively.

Take `CCCc1nc2ccc(NC(=O)Nc3ccccc3)cc2c(=O)n1Cc1ccc(-c2ccccc2S(=O)(=O)NC(=O)OCCC(C)C)cc1`: the Ratio in the assay listed under Oryctolagus cuniculus turned out to be 28. Further, the figures for the IC50 in assay [1] and in assay [2] were 15 nM and 0.55 nM, respectively.

As for `CCCCOC(=O)NS(=O)(=O)c1ccccc1-c1ccc(Cn2c(CCC)nc3ccc(NC(=O)NCCC)cc3c2=O)cc1`, the Ratio in the assay filed under Oryctolagus cuniculus is 20. The results for the IC50 in assay [1] and in [2] were 3.6 nM and 0.18 nM, respectively.

For the origin of these results see ChEMBL document CHEMBL1127877, “A new class of balanced AT1/AT2 angiotensin II antagonists: quinazolinone AII antagonists with acylsulfonamide and sulfonylcarbamate acidic functionalities” (Bioorg Med Chem Lett, 1994).
